Measurements taken from publication PMC3926938 (Nature structural & molecular biology, 2012).
Square brackets hold non-standard residues; d marks the D form. Ends that are not written are not given here. Lys(Me3) = C[N+](C)(C)CCCC[C@H](N)C(=O)O

Experiments:
[1] = target: human PHF19-Tudor (residues 37–95) (human) (UniProt Q5T6S3); test: NMR titration
human PHF19-Tudor = human PHF19-Tudor (Homo sapiens, UniProt Q5T6S3); test: NMR chemical shift titration of Phf19-Tudor with histone H3 peptides; assay type: binding; details: for Kd increased by a factor (alanine mutant peptide vs wild-type peptide): NMR, point mutations in histone H3 amino acids 37–41
[2] = target: human PHF19-Tudor (residues 37–95) (human, UniProt Q5T6S3 37-95); test: NMR titration

11-mer H3K36me3 peptide (31-ATGGVKme3KPHRY-41)
Kd [1]: 29 µM

31-ATGGV-Kme3-K-37 [H3_31–36]
binding to Phf19-Tudor (in words) (human PHF19-Tudor; NMR titration): unable to bind

34-GV-Kme3-APHRY-41 [H3 K37A]
Kd increased by a factor (alanine mutant peptide vs wild-type peptide) (human PHF19-Tudor): 2.1

34-GV-Kme3-KPHRA-41 [H3 Y41A]
Kd increased by a factor (alanine mutant peptide vs wild-type peptide) (human PHF19-Tudor): 1.6

34GV-Kme3-KPHAY-41 [H3 R10A]
Kd increased by a factor (alanine mutant peptide vs wild-type peptide) (human PHF19-Tudor): did not increase

H3K36me2-containing peptide (NMR)
Kd [1]: 295 µM

B1: short H3K36me3 peptide (34-GV-Kme3-KPHRY-41; called the 7-mer histone H3_(35–41) in the results) (peptide)
peptide: GV[Lys(Me3)]KPHRY
Kd [2]: 44 µM
